Experimental findings from PubChem BioAssay (NCI) are described below.

Where “and” joins values, the source holds several entries; their conditions need not be identical. Equal entries are not always repeated.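 Dose response: 5 concentrations. Exposure: 48 h. Format: 96-well plates. Endpoint: linear interpolation; highest concentration if not reached. GI50 is the concentration that inhibits growth by half. TGI is the concentration that stops growth completely.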

Holding throughout (test): NCI-60 cell line screen, 48 h
Experiment [1] deals with A498 renal.
In experiment [2] the test system is HOP-62 NSCLC.
The test system of experiment [3] is OVCAR-8 ovarian.
The test system of experiment [4] is MOLT-4 leukemia.
For experiment [5], the system named is NCI-H522 lung.
Experiment [6] concerns T-47D breast.
The test system of experiment [7] is TK-10 renal.
The subject of experiment [8] is SF-539 CNS.
The test system of experiment [9] is LOX IMVI melanoma.
Experiment [10] deals with EKVX NSCLC.

Turning to `Cc1ccc(/C=C/C(=O)c2ccc(F)cc2)s1`, the GI50 in experiment [1] is 2.69 µM; in experiment [2] it was 14.2 µM; in [3] it was 2.74 µM; in [4] it was 3.39 µM; in [5], 1.71 µM; in experiment [6] it was 4.71 µM. Moreover, the GI50 is 1.84 µM in [7], 3.56 µM in [8], 1.87 µM in [9] and 5.83 µM in [10]. Moreover, the TGI was 11.1 µM in [1]; 28 µM in experiment [2]; 8.72 µM in [3]; greater than 100 µM in experiment [4]; 3.57 µM in experiment [5]; 23.5 µM in experiment [6]. The TGI was 4.33 µM in experiment [7], 10.2 µM in experiment [8], 3.59 µM in experiment [9] and 20.3 µM in experiment [10].

In the case of `O=C(O)c1c2c(c(O)c3c1CN(C1CCCCC1)CO3)OCN(C1CCCCC1)C2`, the TGI in experiment [1] is greater than 100 µM; in [2], greater than 100 µM; in [3], greater than 100 µM; in experiment [4], 40.1 µM; in [5], 95.9 µM; in experiment [6] it was greater than 100 µM. Besides, the TGI in experiment [7] was greater than 100 µM; in [8], greater than 100 µM; in [9], 39.7 µM; in experiment [10] it was greater than 100 µM.

With `O=C(O)C1CCCN1` (stereo not given), the TGI in experiment [1], in [2], in [3], in [4], in experiment [5] and in experiment [6] was greater than 100 µM throughout. Besides, the TGI in experiment [7], in experiment [8], in experiment [9] and in [10] was greater than 100 µM each time.

With `CCOc1ccc2nc3cc(N)ccc3c(N)c2c1`, the GI50 in [1] is 2.78 µM and 12.7 µM; in experiment [2] it was 1.49 µM and 1.58 µM; in experiment [3], 2.68 µM and 2.55 µM; in experiment [4] it was 2.99 µM and 3.26 µM; in experiment [5], 1.8 µM and 1.69 µM; in experiment [6] it was 0.336 µM and 0.385 µM. Besides, the GI50 is 20.9 µM and 12.7 µM in experiment [7]; 2.66 µM and 1.79 µM in [8]; 4.53 µM and 2.95 µM in experiment [9]; 9.76 µM and 7.63 µM in experiment [10]. In addition, the TGI in experiment [1] is 29.1 µM and 37.5 µM; in [2], 6.84 µM and 6.49 µM; in experiment [3] it was 15.8 µM and 13.1 µM; in experiment [4] it was 12.2 µM and 12.4 µM; in experiment [5] it was 4.54 µM and 5.1 µM; in experiment [6], 1.57 µM and 2.4 µM. Also, the TGI in experiment [7] is 46.8 µM and 34.8 µM; in experiment [8] it was 13.6 µM and 6.38 µM; in [9], 20 µM and 12.4 µM; in experiment [10], 36.7 µM and 41.4 µM.

As to `CC(C)OC(=O)Nc1c([N+](=O)[O-])cc(C(F)(F)F)cc1[N+](=O)[O-]`, the TGI is greater than 100 µM in experiment [1]; greater than 100 µM in experiment [2]; greater than 100 µM in experiment [3]; greater than 46.4 µM in [4]; greater than 100 µM in experiment [5]; greater than 100 µM in experiment [6]. The TGI is greater than 100 µM in experiment [7], 70.3 µM in experiment [8], greater than 100 µM in [9] and greater than 100 µM in [10].

For the compound `C=C(C)[C@@H]1CC[C@]2(C(=O)OC)CC[C@]3(C)[C@H](CC[C@@H]4[C@@](C)(CCc5nn[nH]n5)[C@H](C(=C)C)CC[C@]43C)[C@@H]12`, the GI50 in experiment [1] is 22.4 µM; in experiment [2] it was 18.7 µM; in experiment [3], 28.6 µM; in experiment [4] it was 11.7 µM; in experiment [5] it was 17.2 µM; in experiment [6], 15.2 µM. In addition, the GI50 in experiment [7] is 30.9 µM; in experiment [8] it was 16.5 µM; in experiment [9], 16 µM; in experiment [10], 19.2 µM. The TGI in experiment [1] was 60.7 µM; in experiment [2], 41.1 µM; in experiment [3] it was greater than 100 µM; in [4], 40.8 µM; in [5] it was 51.5 µM; in [6], 84.3 µM. Also, the TGI in experiment [7] is greater than 100 µM; in [8], 30.7 µM; in experiment [9], 29.5 µM; in [10] it was 61 µM.

`CN1CCN(c2cc(F)c(NC3=C(Cl)C(=O)c4ncccc4C3=O)c(F)c2)CC1`: the GI50 in [1] is 10.9 µM; in experiment [2] it was 2.06 µM; in experiment [3], 1.86 µM; in experiment [4] it was 2.4 µM; in [5] it was 0.559 µM; in experiment [6] it was 1.82 µM. Moreover, the GI50 in [7] was 1.81 µM; in experiment [8] it was 1.52 µM; in experiment [9], 1.35 µM; in [10], 1.7 µM. Also, the TGI in [1] turned out to be 23.7 µM; in experiment [2], 5.18 µM; in experiment [3] it was 4 µM; in [4], 8.83 µM; in [5], 2.26 µM; in experiment [6], 4.61 µM. The TGI in [7] came out at 3.32 µM; in experiment [8], 2.91 µM; in experiment [9], 2.84 µM; in experiment [10], 3.19 µM.

With `COCCn1c(Nc2ccc(C(=O)NO)cc2)nc2ccccc21`, the GI50 in [1] is 2.64 µM; in experiment [2], 4.58 µM; in [3], 2.69 µM; in [4], 3.86 µM; in [5] it was 2.28 µM; in experiment [6] it was 3.03 µM. Moreover, the GI50 in experiment [7] is 3.19 µM; in experiment [8] it was 4.56 µM; in experiment [9] it was 5.9 µM; in experiment [10], 1.89 µM. For the same compound, the TGI in [1] was 9.17 µM; in experiment [2] it was 55.1 µM; in [3] it was 16 µM; in experiment [4], greater than 100 µM; in [5] it was 13.6 µM; in [6] it was greater than 100 µM. In addition, the TGI in experiment [7] was found to be 44.6 µM; in experiment [8], 25.1 µM; in experiment [9], 19 µM; in experiment [10], 21.4 µM.

Turning to `N#Cc1nc2cc(Cl)c(Cl)cc2nc1-c1ccc(Cl)cc1`, the GI50 in experiment [1] is 21.5 µM; in experiment [2], 21 µM; in experiment [3] it was 55.7 µM; in experiment [4] it was 26.9 µM; in experiment [5] it was 51.5 µM; in [6], greater than 66.1 µM. Further, the GI50 is 21.3 µM in [7], 46.2 µM in experiment [8], 71 µM in [9] and greater than 100 µM in experiment [10]. Moreover, the TGI in [1] is 60.7 µM; in experiment [2], 41.6 µM; in experiment [3], greater than 100 µM; in experiment [4] it was greater than 60.4 µM; in experiment [5], greater than 100 µM; in experiment [6] it was greater than 100 µM. Further, the TGI in experiment [7] was 46.3 µM; in experiment [8], greater than 100 µM; in experiment [9], greater than 100 µM; in experiment [10] it was greater than 100 µM.
